Measurements reported in patent US20100113465A1, “7-AZASPIRO[3.5]NONANE-7-CARBOXAMIDE COMPOUNDS” (Pfizer Inc., priority 2008, published 2010).
Marks after values point to notes of the source that are not given here.

Key:
human FAAH = target: T1, human FAAH (Homo sapiens, UniProt O00519); experiment: FAAH assay, human FAAH enzyme inhibition (kinact/Ki); format: biochemical; settings: oleamide substrate 50 μM, 30° C., read-out: hFAAH kinact/Ki
T1 construct: made in house; host or cells: E. coli
T1 sequence (O00519 1-579): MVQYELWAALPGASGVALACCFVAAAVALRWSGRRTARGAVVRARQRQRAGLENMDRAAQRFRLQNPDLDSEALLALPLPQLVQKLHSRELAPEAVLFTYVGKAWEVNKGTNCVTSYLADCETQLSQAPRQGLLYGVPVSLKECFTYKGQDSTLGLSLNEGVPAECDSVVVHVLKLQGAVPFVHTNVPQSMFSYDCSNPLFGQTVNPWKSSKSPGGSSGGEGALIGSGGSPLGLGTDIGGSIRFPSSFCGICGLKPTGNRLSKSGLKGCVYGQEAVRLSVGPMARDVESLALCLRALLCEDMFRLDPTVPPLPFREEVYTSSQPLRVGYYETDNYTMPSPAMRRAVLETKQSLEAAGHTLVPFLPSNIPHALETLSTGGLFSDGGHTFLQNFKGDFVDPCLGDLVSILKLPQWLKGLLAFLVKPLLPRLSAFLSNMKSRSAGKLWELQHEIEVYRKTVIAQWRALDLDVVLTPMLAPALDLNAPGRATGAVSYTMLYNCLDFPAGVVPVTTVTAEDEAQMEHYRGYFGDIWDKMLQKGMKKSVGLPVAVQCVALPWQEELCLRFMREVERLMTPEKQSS
Method in brief: (§1)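 Purified E. coli-expressed FAAH (1-4 nM) with oleamide at Km (50 μM), coupled GDH/NADH read at 340 nm over 90 min, 30° C, pH 7.4, 7.5% DMSO and EtOH. kobs from mono-exponential fits; kinact/Ki from kobs vs inhibitor slope, multiplied by two.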

rat FAAH = target: T2, rat FAAH (Rattus norvegicus, UniProt P97612); experiment: FAAH assay, rat FAAH enzyme inhibition (kinact/Ki); format: biochemical; settings: oleamide substrate 50 μM, 30° C., read-out: rFAAH kinact/Ki
T2 construct: made in house; host or cells: E. coli
T2 sequence (P97612 1-579): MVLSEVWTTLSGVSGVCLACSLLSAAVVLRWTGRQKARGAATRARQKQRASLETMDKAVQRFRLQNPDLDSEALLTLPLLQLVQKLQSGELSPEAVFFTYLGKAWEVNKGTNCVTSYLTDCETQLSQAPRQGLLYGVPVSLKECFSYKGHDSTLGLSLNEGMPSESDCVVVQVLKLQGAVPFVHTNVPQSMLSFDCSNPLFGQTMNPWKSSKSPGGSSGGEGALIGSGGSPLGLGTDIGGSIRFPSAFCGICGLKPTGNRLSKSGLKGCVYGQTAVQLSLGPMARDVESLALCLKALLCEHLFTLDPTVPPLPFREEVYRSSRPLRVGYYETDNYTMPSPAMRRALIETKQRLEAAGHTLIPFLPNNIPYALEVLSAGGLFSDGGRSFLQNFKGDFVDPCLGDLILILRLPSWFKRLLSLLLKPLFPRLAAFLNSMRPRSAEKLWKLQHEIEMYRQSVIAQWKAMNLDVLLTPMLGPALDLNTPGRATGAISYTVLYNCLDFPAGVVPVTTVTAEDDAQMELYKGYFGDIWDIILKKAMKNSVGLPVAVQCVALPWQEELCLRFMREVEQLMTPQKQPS
Method in brief: as §1

Male Sprague-Dawley Rats [1] = experiment: In vivo Complete Freund's Adjuvant (CFA) efficacy assay; set-up: species or system rat; key: (+) indicates the test compound was determined to be efficacious at 3 mpk, oral dosing; (−) indicates the test compound was determined to not be efficacious at 3 mpk, oral dosing; settings: inhibition of allodynia vs vehicle, p<0.05
Male Sprague-Dawley Rats [2] = experiment: as above; set-up: species or system rat; key: (+) indicates the test compound was determined to be efficacious at 3 mpk, oral dosing; (−) indicates the test compound was determined to not be efficacious at 3 mpk, oral dosing; settings: 3 mpk, oral dosing; inhibition of allodynia (PWT) four hours postdose vs vehicle, p<0.05
Procedure: For additional information on the CFA efficacy assay, see Jayamanne et al., Brit. J. Pharmacol. 2006, 147, 281-288. Experiments were performed on adult Male Sprague-Dawley Rats (200 g-250 g). Inflammation was induced in the left hindpaw of the rat by an intra-plantar injection of 150 uL Complete Freund's Adjuvant (CFA) (SIGMA F5881). The CFA injection immediately induces local inflammation, paw swelling, and pain that persists for at least two weeks post-injection. Baseline paw withdrawal threshold (PWT) was measured to determine the percent inhibition of allodynia using a set of Von Frey Hairs on day 4 post injection as illustrated by the Dixon Up and Down Method (W. J. Dixon, Ann. Rev. Pharmacol. Toxicol. 1980, 20:441-462). […] Test compound was administered at a concentration of 3 mg/kg (mpk) orally with the dosing vehicle 5% N,N′-Dimethylacetamide (SIGMA D137510) and 95% (40% 2-hydroxypropyl-beta-cyclodextrin in water) (SIGMA H107). Following Dose administration PWT threshold was evaluated again at four hours postdose. The Sprague-Dawley rats used in this assay were purchased from Harlan, 8520 Allison Pointe Blvd., Indianapolis, Ind., 46250, U.S.A. Sprague-Dawley rats are an outbred breed of albino rats first produced by the Sprague Dawley farms in Madison, Wis., U.S.A.
Percent Inhibition of Allodynia was determined by the formula: […]
ΔPWT measurements were averaged for each treatment group and statistical comparisons between groups were made using ANOVA and Dunnett's two-tailed test. […]

Row | SMILES | kinact/KI (human FAAH) | kinact/KI (rat FAAH) | CFA Efficacy (Male Sprague-Dawley Rats [1]; 10 mpk, intraperitoneal dosing) | CFA Efficacy (Male Sprague-Dawley Rats [1]; 1 mpk, oral dosing) | CFA Efficacy (Male Sprague-Dawley Rats [1]; 25 mpk, intraperitoneal dosing) | CFA Efficacy (Male Sprague-Dawley Rats [2])
1 | O=C(Nc1cccnn1)N1CCC2(CC1)CC(c1cccc(Oc3ncc(Br)cn3)c1)C2 [Example 9, 2-{3-[(5-bromopyrimidin-2-yl)oxy]phenyl}-N-pyridazin-3-yl-7-azaspiro[3.5]nonane-7-carboxamide] | 2450 M⁻¹ s⁻¹ | 1430 M⁻¹ s⁻¹ | (+)^c |  |  | 
2 | Cc1cccc(C2CC3(CCN(C(=O)Nc4onc(C)c4C)CC3)C2)c1 [Example 7, N-(3,4-dimethylisoxazol-5-yl)-2-(3-methylphenyl)-7-azaspiro[3.5]nonane-7-carboxamide] | 2870 M⁻¹ s⁻¹ | 1620 M⁻¹ s⁻¹ |  | (−)^e |  | 
3 | O=C(Nc1cccnn1)N1CCC2(CC1)CC(c1cccc(Oc3ccc(Br)cn3)c1)C2 [Example 10, 2-{3-[(5-bromopyridin-2-yl)oxy]phenyl}-N-pyridazin-3-yl-7-azaspiro[3.5]nonane-7-carboxamide] | 2040 M⁻¹ s⁻¹ | 1820 M⁻¹ s⁻¹ | (−)^c |  |  | 
4 | Cc1ccc(C2CC3(CCN(C(=O)Nc4onc(C)c4C)CC3)C2)cc1C [Example 8, N-(3,4-dimethylisoxazol-5-yl)-2-(3,4-dimethylphenyl)-7-azaspiro[3.5]nonane-7-carboxamide] | 2820 M⁻¹ s⁻¹ | 1920 M⁻¹ s⁻¹ |  | (−)^e |  | 
5 | Cc1noc(NC(=O)N2CCC3(CC2)CC(c2cccc(OCCOc4ccc(Cl)cc4)c2)C3)c1C [Example 25, 2-{3-[2-(4-chlorophenoxy)ethoxy]phenyl}-N-(3,4-dimethylisoxazol-5-yl)-7-azaspiro[3.5]nonane-7-carboxamide] | 2860 M⁻¹ s⁻¹ | 2340 M⁻¹ s⁻¹ |  |  |  | (+)

Second part, led by results:

Row | kinact/KI (human FAAH) | kinact/KI (rat FAAH) | SMILES | CFA Efficacy (Male Sprague-Dawley Rats [1]; 10 mpk, intraperitoneal dosing) | CFA Efficacy (Male Sprague-Dawley Rats [1]; 1 mpk, oral dosing) | CFA Efficacy (Male Sprague-Dawley Rats [1]; 25 mpk, intraperitoneal dosing) | CFA Efficacy (Male Sprague-Dawley Rats [2])
6 | 1570 M⁻¹ s⁻¹ | 647 M⁻¹ s⁻¹ | O=C(Nc1cccnn1)N1CCC2(CC1)CC(c1cccc(Oc3ccc(C(F)(F)F)cn3)c1)C2 [Example 1, N-pyridazin-3-yl-2-(3-{[5-(trifluoromethyl)pyridin-2-yl]oxy}phenyl)-7-azaspiro[3.5]nonane-7-carboxamide] | (−)^c |  |  | 
7 | 1030 M⁻¹ s⁻¹ | 4920 M⁻¹ s⁻¹ | O=C(Nc1noc2ccccc12)N1CCC2(CC1)CC(c1cccc(Oc3ccc(C(F)(F)F)cn3)c1)C2 [Example 3, N-1,2-benzisoxazol-3-yl-2-(3-{[5-(trifluoromethyl)pyridin-2-yl]oxy}phenyl)-7-azaspiro[3.5]nonane-7-carboxamide] |  | (−) | (+) | 
8 | 1760 M⁻¹ s⁻¹ | 9460 M⁻¹ s⁻¹ | Cc1noc(NC(=O)N2CCC3(CC2)CC(c2cccc(Oc4ccc(C(F)(F)F)cn4)c2)C3)c1C [Example 2, N-(3,4-dimethylisoxazol-5-yl)-2-(3-{[5-(trifluoromethyl)pyridin-2-yl]oxy}phenyl)-7-azaspiro[3.5]nonane-7-carboxamide] |  |  | (+)^d | 
9 | 2190 M⁻¹ s⁻¹ | 741 M⁻¹ s⁻¹ | COc1cccc(C2CC3(CCN(C(=O)Nc4onc(C)c4C)CC3)C2)c1 [Example 5, N-(3,4-dimethylisoxazol-5-yl)-2-(3-methoxyphenyl)-7-azaspiro[3.5]nonane-7-carboxamide] | (+)^c |  |  | 
10 | 3060 M⁻¹ s⁻¹ | 3690 M⁻¹ s⁻¹ | Cc1noc(NC(=O)N2CCC3(CC2)CC(c2cccc(C(F)(F)F)c2)C3)c1C [Example 6, N-(3,4-dimethylisoxazol-5-yl)-2-[3-(trifluoromethyl)phenyl]-7-azaspiro[3.5]nonane-7-carboxamide] |  | (−)^e |  | 
11 | 16700 M⁻¹ s⁻¹ | 3530 M⁻¹ s⁻¹ | Cn1nnnc1NC(=O)N1CCC2(CC1)CC(c1noc(-c3ccc(OC(F)(F)F)cc3)n1)C2 [Example 50, N-(1-methyl-1H-tetrazol-5-yl)-2-{5-[4-(trifluoromethoxy)phenyl]-1,2,4-oxadiazol-3-yl}-7-azaspiro[3.5]nonane-7-carboxamide] |  |  |  | (+)
